Reference: ChEMBL document CHEMBL1123075, “Opioid agonists and antagonists. 6-Desoxy-6-substituted lactone, epoxide, and glycidate ester derivatives of naltrexone and oxymorphone” (J Med Chem, 1985)

How the values were obtained:
Opioid receptor [1] = target: T1, Opioid receptor (Rattus norvegicus, UniProt P33533+P34975+P33535); assay: In vitro opioid receptor binding competition against 1 nM [3H]- Naltrexone in the absence of NaCl.; format: protein assay
Opioid receptor [2] = target: T1, Opioid receptor; assay: In vitro opioid receptor binding competition against 1 nM [3H]- Naltrexone in the presence of 100 mM NaCl.; format: protein assay
[3] = target: Opioid receptor (Rattus norvegicus) (UniProt P33533+P34975+P33535); assay: Ratio of IC50 value in presence of NaCl to that of NaCl absence against opioid receptor.; format: protein assay
[4] = Activity against specific binding of [3H]naltrxone at dose 500 nM & at 37 degree C in the presence of Na+ ion(washed)
[5] = Activity against specific binding of [3H]naltrxone at dose 200 nM & at 25 degree C in the presence of Na+ ion (washed)
[6] = Activity against specific binding of [3H]-naltrxone at dose 200 nM & at 25 degree C in the presence of Na+ ion (unwashed )
[7] = Activity against specific binding of [3H]naltrxone at dose 200 nM & at 25 degree C in the absence of Na+ ion (unwashed )
[8] = Activity against specific binding of [3H]naltrxone at dose 500 nM & at 37 degree C in the presence of Na+ ion (unwashed )
[9] = Activity against specific binding of [3H]naltrxone at dose 200 nM & at 25 degree C in the absence of Na+ ion (washed)
[10] = Activity against specific binding of [3H]naltrxone at dose 75 nM & at 37 degree C in the absence of Na+ ion (washed)
[11] = Activity against specific binding of [3H]naltrxone at dose 75 nM & at 37 degree C in the absence of Na+ ion (unwashed )

Oc1ccc2c3c1OC1C4(CCC5(O)[C@@H](C2)N(CC2CC2)CC[C@]315)CO4 (stereo in doubt; 12a) [listing 1 of 2 here]
IC50 (Opioid receptor [1]): 4 nM | IC50 (Opioid receptor [2]): 2 nM

CCOC(=O)[C@H]1OC12CCC1(O)[C@H]3Cc4ccc(O)c5c4[C@@]1(CCN3CC1CC1)C2O5 (stereo partly specified)
IC50 (Opioid receptor [1]): 2.3 nM | IC50 (Opioid receptor [2]): 3.5 nM | Ratio [3]: 1.5

C=C1CC2(CCC3(O)[C@H]4Cc5ccc(O)c6c5[C@@]3(CCN4C)C2O6)OC1=O (stereo in doubt; 5b) [listing 1 of 2 here]
IC50 (Opioid receptor [1]): 35 nM | IC50 (Opioid receptor [2]): 250 nM

Oc1ccc2c3c1OC1C4(CCC5(O)[C@@H](C2)N(CC2CC2)CC[C@]315)CO4 (stereo in doubt; 13a) [listing 1 of 2 here]
Ratio [3]: 0.6

C=C1CC2(CCC3(O)[C@H]4Cc5ccc(O)c6c5[C@@]3(CCN4CC3CC3)C2O6)OC1=O (stereo in doubt; 6a) [listing 1 of 2 here]
IC50 (Opioid receptor [1]): 12.5 nM | IC50 (Opioid receptor [2]): 15 nM

Oc1ccc2c3c1OC1C4(CCC5(O)[C@@H](C2)N(CC2CC2)CC[C@]315)CO4 (stereo in doubt; 13a) [listing 2 of 2 here]
IC50 (Opioid receptor [1]): 5.1 nM | IC50 (Opioid receptor [2]): 3.4 nM

CC1CC2(CCC3(O)[C@H]4Cc5ccc(O)c6c5[C@@]3(CCN4CC3CC3)C2O6)OC1=O (stereo partly specified)
IC50 (Opioid receptor [1]): 10 nM | IC50 (Opioid receptor [2]): 6 nM | Ratio [3]: 0.6

CN1CC[C@]23c4c5ccc(O)c4OC2C2(CCC3(O)C1C5)CO2 (stereo partly specified)
IC50 (Opioid receptor [1]): 8 nM | IC50 (Opioid receptor [2]): 60 nM | Ratio [3]: 7.5

O=C1C=CC2(CCC3(O)[C@H]4Cc5ccc(O)c6c5[C@@]3(CCN4CC3CC3)C2O6)O1 (stereo partly specified)
IC50 (Opioid receptor [1]): 10 nM | IC50 (Opioid receptor [2]): 10 nM | Ratio [3]: 1

CC1CC2(CCC3(O)C4Cc5ccc(O)c6c5[C@@]3(CCN4C)C2O6)OC1=O (stereo partly specified)
IC50 (Opioid receptor [1]): 30 nM | IC50 (Opioid receptor [2]): 500 nM | Ratio [3]: 16.7

C=C1CC2(CCC3(O)[C@H]4Cc5ccc(O)c6c5[C@@]3(CCN4CC3CC3)C2O6)OC1=O (stereo in doubt; 6a) [listing 2 of 2 here]
Ratio [3]: 1.2

C=C1CC2(CCC3(O)[C@H]4Cc5ccc(O)c6c5[C@@]3(CCN4CC3CC3)C2O6)OC1=O (stereo in doubt; 5a) [listing 1 of 2 here]
IC50 (Opioid receptor [1]): 5 nM | IC50 (Opioid receptor [2]): 2 nM

CCOC(=O)[C@@H]1OC12CCC1(O)C3Cc4ccc(O)c5c4[C@@]1(CCN3C)C2O5 (stereo partly specified)
IC50 (Opioid receptor [1]): 15 nM | IC50 (Opioid receptor [2]): 200 nM | Ratio [3]: 13.3

CC1=CC2(CCC3(O)C4Cc5ccc(O)c6c5[C@@]3(CCN4C)C2O6)OC1=O (stereo partly specified)
IC50 (Opioid receptor [1]): 200 nM | IC50 (Opioid receptor [2]): > 1000 nM | Ratio [3]: > 5

CCOC(=O)[C@H]1OC12CCC1(O)C3Cc4ccc(O)c5c4[C@@]1(CCN3C)C2O5 (stereo partly specified)
IC50 (Opioid receptor [1]): 70 nM | IC50 (Opioid receptor [2]): 1000 nM | Ratio [3]: 14.2

C=C1C(=O)OC2=C1CC1(O)[C@H]3Cc4ccc(O)c5c4[C@@]1(CCN3CC1CC1)C2O5 (stereo partly specified)
IC50 (Opioid receptor [1]): 100 nM | IC50 (Opioid receptor [2]): 50 nM | Ratio [3]: 0.5

CCOC(=O)[C@@H]1OC12CCC1(O)[C@H]3Cc4ccc(O)c5c4[C@@]1(CCN3CC1CC1)C2O5 (stereo partly specified)
IC50 (Opioid receptor [1]): 6 nM | Ratio [3]: 1

C=C1CC2(CCC3(O)[C@H]4Cc5ccc(O)c6c5[C@@]3(CCN4C)C2O6)OC1=O (stereo in doubt; 6b) [listing 1 of 2 here]
IC50 (Opioid receptor [1]): 125 nM | IC50 (Opioid receptor [2]): 880 nM

CC1=CC2(CCC3(O)[C@H]4Cc5ccc(O)c6c5[C@@]3(CCN4CC3CC3)C2O6)OC1=O (stereo partly specified)
IC50 (Opioid receptor [1]): 40 nM | IC50 (Opioid receptor [2]): 70 nM | Ratio [3]: 1.8

C=C1CC2(CCC3(O)[C@H]4Cc5ccc(O)c6c5[C@@]3(CCN4C)C2O6)OC1=O (stereo in doubt; 6b) [listing 2 of 2 here]
Ratio [3]: 7

Oc1ccc2c3c1OC1C4(CCC5(O)[C@@H](C2)N(CC2CC2)CC[C@]315)CO4 (stereo in doubt; 12a) [listing 2 of 2 here]
Ratio [3]: 0.5

C=C1CC2(CCC3(O)[C@H]4Cc5ccc(O)c6c5[C@@]3(CCN4C)C2O6)OC1=O (stereo in doubt; 5b) [listing 2 of 2 here]
Control [4]: 56% | Control [5]: 63% | Control [6]: 43% | Control [7]: 35% | Control [8]: 34% | Ratio [3]: 7 | Control [9]: 79% | Control [10]: 97% | Control [11]: 66%

C=C1C(=O)OC2C1CC1(O)[C@H]3Cc4ccc(O)c5c4[C@@]1(CCN3CC1CC1)C2O5 (stereo partly specified)
IC50 (Opioid receptor [1]): 10 nM | IC50 (Opioid receptor [2]): 7 nM | Ratio [3]: 0.7

C=C1CC2(CCC3(O)[C@H]4Cc5ccc(O)c6c5[C@@]3(CCN4CC3CC3)C2O6)OC1=O (stereo in doubt; 5a) [listing 2 of 2 here]
Ratio [3]: 0.4
